Test system: MV-4-11 cells
Experiment: Gene expression microarray analysis (Affymetrix PrimeView) and GSEA
Format: cell-based, human
Design: RFU PODN (11730768_x_at) / Fold change /veh PODN (11730768_x_at) / RFU LINC00158 (11744669_a_at) / Fold change /veh LINC00158 (11744669_a_at) / RFU DUSP10 (11751237_a_at) / Fold change /veh DUSP10 (11751237_a_at) / RFU ID3 (11757404_x_at) / Fold change /veh ID3 (11757404_x_at) / RFU PLEKHG5 (11737974_s_at) / Fold change /veh PLEKHG5 (11737974_s_at) / RFU LRRC4B (11730491_at) / Fold change /veh LRRC4B (11730491_at) / RFU GIMAP4 (11747438_a_at) / Fold change /veh GIMAP4 (11747438_a_at) / RFU KRT8 (11758183_x_at) / Fold change /veh KRT8 (11758183_x_at) / RFU CNN1 (11734310_a_at) / Fold change /veh CNN1 (11734310_a_at) / RFU VPS37D (11726825_at) / Fold change /veh VPS37D (11726825_at) / RFU C10orf10 (11716522_x_at) / Fold change /veh C10orf10 (11716522_x_at) / RFU KIR2DL2 /// KIR2DL4 /// KIR2DL5A /// KIR2DL5B /// KIR2DS1 /// KIR2DS2 /// KIR2DS3 /// KIR2DS4 /// KIR3DL3 /// KIR3DL3 /// KIR3DS1 (11738374_at) / Fold change /veh KIR2DL2 /// KIR2DL4 /// KIR2DL5A /// KIR2DL5B /// KIR2DS1 /// KIR2DS2 /// KIR2DS3 /// KIR2DS4 /// KIR3DL3 /// KIR3DL3 /// KIR3DS1 (11738374_at) / RFU C1QL1 (11718748_at) / Fold change /veh C1QL1 (11718748_at) / RFU TMPRSS4 (11747572_a_at) / Fold change /veh TMPRSS4 (11747572_a_at) / RFU HAMP (11756126_x_at) / Fold change /veh HAMP (11756126_x_at) / RFU RNFT2 (11725882_a_at) / Fold change /veh RNFT2 (11725882_a_at) / RFU NR4A2 (11747474_a_at) / Fold change /veh NR4A2 (11747474_a_at) / RFU ABCC12 (11746883_a_at) / Fold change /veh ABCC12 (11746883_a_at) / RFU TMEM136 (11760407_x_at) / Fold change /veh TMEM136 (11760407_x_at) / RFU CLDN22 /// WWC2 (11732394_at) / Fold change /veh CLDN22 /// WWC2 (11732394_at) / RFU HLA-DPB1 (11760878_x_at) / Fold change /veh HLA-DPB1 (11760878_x_at) / RFU SPINT1 (11716480_a_at) / Fold change /veh SPINT1 (11716480_a_at) / RFU GAP43 (11754022_s_at) / Fold change /veh GAP43 (11754022_s_at) / RFU A4GNT (11735810_at) / Fold change /veh A4GNT (11735810_at) / RFU PRB3 (11715151_x_at) / Fold change /veh PRB3 (11715151_x_at) / RFU TUBB4B (11761932_at) / Fold change /veh TUBB4B (11761932_at) / RFU CAPN14 (11732068_a_at) / Fold change /veh CAPN14 (11732068_a_at) / RFU TMCC2 (11721928_a_at) / Fold change /veh TMCC2 (11721928_a_at) / RFU IRGQ (11745062_a_at) / Fold change /veh IRGQ (11745062_a_at) / RFU FAM174B (11720279_a_at) / Fold change /veh FAM174B (11720279_a_at) / RFU TMPRSS4 (11748680_a_at) / Fold change /veh TMPRSS4 (11748680_a_at) / RFU FAM212B (11763350_a_at) / Fold change /veh FAM212B (11763350_a_at) / RFU PLEKHG5 (11743358_a_at) / Fold change /veh PLEKHG5 (11743358_a_at) / RFU ZSCAN30 (11745921_a_at) / Fold change /veh ZSCAN30 (11745921_a_at) / RFU CMKLR1 (11741424_a_at) / Fold change /veh CMKLR1 (11741424_a_at) / RFU LOC101060620 /// MAPK8IP1 (11723275_at) / Fold change /veh LOC101060620 /// MAPK8IP1 (11723275_at) / RFU SPTSSB (11747773_x_at) / Fold change /veh SPTSSB (11747773_x_at) / RFU PRSS12 (11739890_at) / Fold change /veh PRSS12 (11739890_at) / RFU BIN1 (11741810_x_at) / Fold change /veh BIN1 (11741810_x_at) / RFU WNT11 (11732464_a_at) / Fold change /veh WNT11 (11732464_a_at) / RFU C10orf10 (11716521_a_at) / Fold change /veh C10orf10 (11716521_a_at) / RFU C5orf56 (11738089_at) / Fold change /veh C5orf56 (11738089_at) / RFU CYB561 (11721691_x_at) / Fold change /veh CYB561 (11721691_x_at) / RFU ANKRD19P (11752326_a_at) / Fold change /veh ANKRD19P (11752326_a_at) / RFU OR2T12 /// OR2T33 /// OR2T8 (11738714_s_at) / Fold change /veh OR2T12 /// OR2T33 /// OR2T8 (11738714_s_at) / RFU VCAN (11748164_a_at) / Fold change /veh VCAN (11748164_a_at) / RFU JSRP1 (11732532_at) / Fold change /veh JSRP1 (11732532_at) / RFU KRTAP10-11 (11738290_x_at) / Fold change /veh KRTAP10-11 (11738290_x_at) / RFU MYO3A (11730013_a_at) / Fold change /veh MYO3A (11730013_a_at) / RFU EBF3 (11725865_a_at) / Fold change /veh EBF3 (11725865_a_at) / RFU CAMK2N1 (11719241_x_at) / Fold change /veh CAMK2N1 (11719241_x_at) / RFU C5orf56 (11738088_a_at) / Fold change /veh C5orf56 (11738088_a_at) / RFU OLFML3 (11715873_a_at) / Fold change /veh OLFML3 (11715873_a_at) / RFU LOC100653217 /// NTM (11731650_a_at) / Fold change /veh LOC100653217 /// NTM (11731650_a_at) / RFU MAPK11 (11762145_a_at) / Fold change /veh MAPK11 (11762145_a_at) / RFU FIZ1 (11724087_x_at) / Fold change /veh FIZ1 (11724087_x_at) / RFU OASL (11726364_x_at) / Fold change /veh OASL (11726364_x_at) / RFU SOX15 (11748057_x_at) / Fold change /veh SOX15 (11748057_x_at) / RFU CD79A (11719716_a_at) / Fold change /veh CD79A (11719716_a_at) / RFU HIST1H1D (11736915_at) / Fold change /veh HIST1H1D (11736915_at) / RFU CASKIN2 (11723855_a_at) / Fold change /veh CASKIN2 (11723855_a_at) / RFU LOC730098 (11760151_x_at) / Fold change /veh LOC730098 (11760151_x_at) / RFU OR4N2 (11742367_at) / Fold change /veh OR4N2 (11742367_at) / RFU PRRT2 (11749266_a_at) / Fold change /veh PRRT2 (11749266_a_at) / RFU SNX32 (11753110_a_at) / Fold change /veh SNX32 (11753110_a_at) / RFU CDHR5 (11726645_a_at) / Fold change /veh CDHR5 (11726645_a_at) / RFU RCAN1 (11760418_a_at) / Fold change /veh RCAN1 (11760418_a_at) / RFU FAM167A (11723789_a_at) / Fold change /veh FAM167A (11723789_a_at) / RFU FAM26E (11764081_at) / Fold change /veh FAM26E (11764081_at) / RFU ISYNA1 (11749810_s_at) / Fold change /veh ISYNA1 (11749810_s_at) / RFU ACY1 (11761880_at) / Fold change /veh ACY1 (11761880_at) / RFU 11764098_at / Fold change /veh 11764098_at / RFU SAMD14 (11745864_x_at) / Fold change /veh SAMD14 (11745864_x_at) / RFU NPB (11741838_a_at) / Fold change /veh NPB (11741838_a_at) / RFU TMPRSS6 (11731388_a_at) / Fold change /veh TMPRSS6 (11731388_a_at) / RFU KRTAP10-2 (11738614_at) / Fold change /veh KRTAP10-2 (11738614_at) / RFU ARHGAP8 /// PRR5-ARHGAP8 (11727945_x_at) / Fold change /veh ARHGAP8 /// PRR5-ARHGAP8 (11727945_x_at) / RFU KRTAP5-7 /// NADSYN1 (11734609_at) / Fold change /veh KRTAP5-7 /// NADSYN1 (11734609_at) / RFU RASL12 (11751679_a_at) / Fold change /veh RASL12 (11751679_a_at) / RFU CDKN2B (11736163_a_at) / Fold change /veh CDKN2B (11736163_a_at) / RFU PRF1 (11729649_at) / Fold change /veh PRF1 (11729649_at) / RFU, ZNF638 /// ZNF638-IT1 / Fold change vs veh, ZNF638 /// ZNF638-IT1 / RFU, PANK3 / Fold change vs veh, PANK3 / RFU, SH3YL1 / Fold change vs veh, SH3YL1 / RFU, ZEB2 / Fold change vs veh, ZEB2 / RFU, NRIP1 / Fold change vs veh, NRIP1 / RFU, PTTG1IP / Fold change vs veh, PTTG1IP / RFU, CAPN2 / Fold change vs veh, CAPN2 / RFU, MED14 / Fold change vs veh, MED14 / RFU, SNORA58 / Fold change vs veh, SNORA58 / RFU, C1orf63 / Fold change vs veh, C1orf63 / RFU, LRRFIP1 / Fold change vs veh, LRRFIP1 / RFU, NDUFAF7 / Fold change vs veh, NDUFAF7 / RFU, SLC12A2 / Fold change vs veh, SLC12A2 / RFU, IBTK / Fold change vs veh, IBTK / RFU, ESF1 / Fold change vs veh, ESF1 / Fold change vs veh, TMEM50B / RFU, TAOK1 / Fold change vs veh, TAOK1 / RFU, ACBD3 / Fold change vs veh, ACBD3 / RFU, TMA16 / Fold change vs veh, TMA16 / RFU, RWDD3 / Fold change vs veh, RWDD3 / RFU, BCAT1 / Fold change vs veh, BCAT1 / RFU, EDEM3 / Fold change vs veh, EDEM3 / RFU, TMEM33 / Fold change vs veh, TMEM33 / RFU, WDR75 / Fold change vs veh, WDR75 / RFU, AHCTF1 / Fold change vs veh, AHCTF1 / RFU, TFRC / Fold change vs veh, TFRC / RFU, ZDHHC17 / Fold change vs veh, ZDHHC17 / RFU, NOM1 / Fold change vs veh, NOM1 / RFU, ARL8B / Fold change vs veh, ARL8B / RFU, ZBTB11 / Fold change vs veh, ZBTB11 / RFU, TAMM41 / Fold change vs veh, TAMM41 / RFU, KIAA1704 /// LOC100996395 / Fold change vs veh, KIAA1704 /// LOC100996395 / RFU, ING1 / Fold change vs veh, ING1 / RFU, TRMT61B / Fold change vs veh, TRMT61B / RFU, FUBP3 / Fold change vs veh, FUBP3 / RFU, TP53 / Fold change vs veh, TP53 / RFU, TNKS2 / Fold change vs veh, TNKS2 / RFU, ZFP14 / Fold change vs veh, ZFP14 / RFU, ACTR2 / Fold change vs veh, ACTR2 / RFU, PPP3R1 / Fold change vs veh, PPP3R1 / RFU, PIK3R1 / Fold change vs veh, PIK3R1 / RFU, HNRNPA1 / Fold change vs veh, HNRNPA1 / RFU, RNF170 / Fold change vs veh, RNF170 / RFU, ZNF28 / Fold change vs veh, ZNF28 / RFU, RNGTT / Fold change vs veh, RNGTT / RFU, OGT / Fold change vs veh, OGT / RFU, BRD1 / Fold change vs veh, BRD1 / RFU, MARS / Fold change vs veh, MARS / RFU, ZNF655 / Fold change vs veh, ZNF655 / RFU, FAHD1 / Fold change vs veh, FAHD1 / RFU, BDP1 / Fold change vs veh, BDP1 / RFU, LRRCC1 / Fold change vs veh, LRRCC1 / RFU, ARID1A / Fold change vs veh, ARID1A / RFU, ZNF146 / Fold change vs veh, ZNF146 / RFU, ZNF330 / Fold change vs veh, ZNF330 / RFU, GPN3 / Fold change vs veh, GPN3 / RFU, C9orf123 / Fold change vs veh, C9orf123 / RFU, N4BP2L2 / Fold change vs veh, N4BP2L2 / RFU, ARFIP1 / Fold change vs veh, ARFIP1 / RFU, FAM179B / Fold change vs veh, FAM179B / RFU, BCL10 / Fold change vs veh, BCL10 / RFU, UHRF1BP1L / Fold change vs veh, UHRF1BP1L / RFU, BET1 / Fold change vs veh, BET1 / RFU, CNOT2 / Fold change vs veh, CNOT2 / RFU, ZNF268 / Fold change vs veh, ZNF268 / Fold change vs veh, ZNF507 / RFU, DGCR2 / Fold change vs veh, DGCR2 / RFU, WDSUB1 / Fold change vs veh, WDSUB1 / Fold change vs veh, HSP90B1 /// MIR3652 / RFU, ADSS / Fold change vs veh, ADSS / RFU, GK / Fold change vs veh, GK / RFU, ZNF148 / Fold change vs veh, ZNF148 / RFU, TAF9 / Fold change vs veh, TAF9 / RFU, SLC1A5 / Fold change vs veh, SLC1A5 / RFU, SLMO2 / Fold change vs veh, SLMO2 / RFU, ABCC4 / Fold change vs veh, ABCC4 / RFU, LOC101060439 /// RAP1B / Fold change vs veh, LOC101060439 /// RAP1B / RFU, RFX7 / Fold change vs veh, RFX7 / RFU, GTPBP10 / Fold change vs veh, GTPBP10 / RFU, CNEP1R1 / Fold change vs veh, CNEP1R1 / RFU, BIVM-ERCC5 /// ERCC5 / Fold change vs veh, BIVM-ERCC5 /// ERCC5 / RFU, ILF3 / Fold change vs veh, ILF3 / RFU 11762660_at / Fold change /veh 11762660_at / RFU VCAN (11757783_s_at) / Fold change /veh VCAN (11757783_s_at) / RFU DDX43 (11728927_at) / Fold change /veh DDX43 (11728927_at) / RFU KRT8 (11758188_x_at) / Fold change /veh KRT8 (11758188_x_at) / RFU NKD1 (11759106_at) / Fold change /veh NKD1 (11759106_at) / RFU SRD5A1 (11742802_a_at) / Fold change /veh SRD5A1 (11742802_a_at) / RFU TPSAB1 /// TPSB2 (11721975_s_at) / Fold change /veh TPSAB1 /// TPSB2 (11721975_s_at) / RFU GSTM3 (11746129_a_at) / Fold change /veh GSTM3 (11746129_a_at) / RFU IL23R (11737362_x_at) / Fold change /veh IL23R (11737362_x_at) / RFU TMEM51 (11727254_a_at) / Fold change /veh TMEM51 (11727254_a_at) / RFU PIWIL2 (11732686_x_at) / Fold change /veh PIWIL2 (11732686_x_at) / RFU ORM1 (11744905_x_at) / Fold change /veh ORM1 (11744905_x_at) / RFU CCDC152 (11743942_at) / Fold change /veh CCDC152 (11743942_at) / RFU ECM1 (11717891_a_at) / Fold change /veh ECM1 (11717891_a_at) / RFU IL23R (11748794_a_at) / Fold change /veh IL23R (11748794_a_at) / RFU TNFAIP8L3 (11732012_x_at) / Fold change /veh TNFAIP8L3 (11732012_x_at) / RFU MBOAT4 (11741988_at) / Fold change /veh MBOAT4 (11741988_at) / RFU 11764193_at / Fold change /veh 11764193_at / RFU TMEM53 (11763286_at) / Fold change /veh TMEM53 (11763286_at) / RFU MAGEB2 (11727129_at) / Fold change /veh MAGEB2 (11727129_at) / RFU TMEM200A (11744735_a_at) / Fold change /veh TMEM200A (11744735_a_at) / RFU CCDC152 (11751479_a_at) / Fold change /veh CCDC152 (11751479_a_at) / RFU FAM211A (11726209_a_at) / Fold change /veh FAM211A (11726209_a_at) / RFU RGS16 (11746705_a_at) / Fold change /veh RGS16 (11746705_a_at) / RFU VCAN (11755009_s_at) / Fold change /veh VCAN (11755009_s_at) / RFU RHOB (11743442_s_at) / Fold change /veh RHOB (11743442_s_at) / RFU RGS16 (11720943_a_at) / Fold change /veh RGS16 (11720943_a_at) / RFU RGS16 (11720944_at) / Fold change /veh RGS16 (11720944_at) / RFU, VPS4B / Fold change vs veh, VPS4B / RFU, CREB1 / Fold change vs veh, CREB1 / RFU, DNAJC13 / Fold change vs veh, DNAJC13 / RFU, GNAQ / Fold change vs veh, GNAQ / RFU, CDK5R1 / Fold change vs veh, CDK5R1 / RFU, ZRANB3 / Fold change vs veh, ZRANB3 / RFU, CUL4A / Fold change vs veh, CUL4A / RFU, CCNY / Fold change vs veh, CCNY / RFU, UFL1 / Fold change vs veh, UFL1 / RFU, COG3 / Fold change vs veh, COG3 / RFU, DIAPH2 / Fold change vs veh, DIAPH2 / RFU, SKA2 / Fold change vs veh, SKA2 / RFU, AFF3 / Fold change vs veh, AFF3 / RFU, LMF1 / Fold change vs veh, LMF1 / RFU, IPO11 / Fold change vs veh, IPO11 / RFU, DFFB / Fold change vs veh, DFFB / RFU, FOXP1 / Fold change vs veh, FOXP1 / RFU, CARD8 / Fold change vs veh, CARD8 / RFU, STRN3 / Fold change vs veh, STRN3 / RFU, ADK / Fold change vs veh, ADK / RFU, RASSF2 / Fold change vs veh, RASSF2 / RFU, WIPF1 / Fold change vs veh, WIPF1 / RFU, LARP1B / Fold change vs veh, LARP1B / RFU, RASA1 / Fold change vs veh, RASA1 / RFU, RB1 / Fold change vs veh, RB1 / RFU, PPFIA1 / Fold change vs veh, PPFIA1 / RFU, MAT2A / Fold change vs veh, MAT2A / RFU, CCT5 / Fold change vs veh, CCT5 / RFU, WDR92 / Fold change vs veh, WDR92 / RFU, CUX1 / Fold change vs veh, CUX1 / RFU, TTC7A / Fold change vs veh, TTC7A / RFU, TMEM135 / Fold change vs veh, TMEM135 / RFU, DEPTOR / Fold change vs veh, DEPTOR / RFU, CPM / Fold change vs veh, CPM / RFU, DNAJB6 / Fold change vs veh, DNAJB6 / RFU, CACNA2D3 / Fold change vs veh, CACNA2D3 / RFU, DTX4 / Fold change vs veh, DTX4 / RFU, TFCP2 / Fold change vs veh, TFCP2 / RFU, GMCL1 /// GMCL1P1 / Fold change vs veh, GMCL1 /// GMCL1P1 / RFU, AEBP2 / Fold change vs veh, AEBP2 / RFU, SNHG1 /// SNORD22 /// SNORD25 /// SNORD26 /// SNORD27 /// SNORD28 /// SNORD29 /// SNORD31 / Fold change vs veh, SNHG1 /// SNORD22 /// SNORD25 /// SNORD26 /// SNORD27 /// SNORD28 /// SNORD29 /// SNORD31 / Fold change (Aza/veh), C12orf56 (ProbeSet 11735607_a_at) / Fold change (ACY-1035/veh), C12orf56 (ProbeSet 11735607_a_at) / Fold change (Aza/veh), FGFR1OP (ProbeSet 11751329_s_at) / Fold change (ACY-1035/veh), FGFR1OP (ProbeSet 11751329_s_at) / Fold change (Aza/veh), VPS36 (ProbeSet 11739960_a_at) / Fold change (ACY-1035/veh), VPS36 (ProbeSet 11739960_a_at) / RFU SYPL1 (11715823_x_at) / Fold change /veh SYPL1 (11715823_x_at) / RFU IGFBP7 (11715501_s_at) / Fold change /veh IGFBP7 (11715501_s_at) / RFU REEP3 (11722064_at) / Fold change /veh REEP3 (11722064_at) / RFU IGLL1 (11728026_x_at) / Fold change /veh IGLL1 (11728026_x_at): dose or concentration left out as unconfirmed
Conditions: MV-4-11 cells, 48 hours

## Nc1ccc(-c2cccs2)cc1NC(=O)c1ccc2c(c1)cc(C1CC1)n2CCN1CCOCC1 [ACY-1035]
  RFU PRRT2 (11749266_a_at): 47.30 RFU

Source: paper PMC5218480 (PLoS ONE, 2017)
